Patent US10207023B2, “Antibacterial calcium-based materials” (NATIONAL CHENG KUNG UNIVERSITY, priority 2012, dated 2019)

How the values were obtained:
[1] = tested on: staphylococcus aureus (SA); assay: Disk diffusion assay (antibacterial zone); type: cell-based; details: for antibacterial behavior: commercially pure lithium compounds, dry- or wet-molded 3 mm high, 6 mm dia. cylinders; for anti-bacterial zones: wet-molded pure Li compound (0.6 M (NH4)2HPO4 setting solution, 1.4 MPa), 6 mm dia. cylinder
Method: To prepare a TSB medium, 6 g Tryptone (Neogen, USA), 2 g Soytone (Soytone BD, USA) and 2 g NaCl (J.T. Baker, USA) were placed into a beaker filled with 400 ml of double distilled water and mixed with a stir bar. After total dissolution, the pH of the solution was adjusted to 7.3 and the solution was autoclaved (121° C., 1.2 kg/cm^2) for 30 min.
To prepare a TSA medium, 6 g Tryptone (Neogen, USA), 2 g Soytone (Soytone BD, USA), 2 g NaCl (J.T. Baker, USA) and 6 g Agar (Neogen, USA) were placed into a beaker filled with 400 ml of double distilled water and mixed with a stir bar. After total dissolution, the pH of the solution was adjusted to 7.3 and the solution was autoclaved (121° C., 1.2 kg/cm^2) for 30 min. After being sterilized, the TSA medium was poured into a petri dish and allowed hardened. The TSA medium was then placed into an incubator at 30° C.
1 ml staphylococcus aureus (SA) containing TSB medium was transferred into a 15 ml centrifuge tube, wherein 10 ml phosphate buffered saline (PBS) was added and mixed gently. The mixture was centrifuged (KUBOTA 5922, Japan) at 3000 rpm for 10 minutes. The supernatant was removed and a SA pellet remained. 1 ml PBS was then added to suspend the pellet. 20 μl of the SA suspension and 180 μl PBS were transferred into each well of a 96 well plate. The absorbance was assayed using an ELISA reader (Sunrise, Tecan, Switzerland) at 600 nm to determine the bacterial concentration (cfu/ml) (200 μl of PBS was used as a negative control). Once determined, an appropriate volume of SA containing medium was transferred into a 1 micro centrifuge tube, wherein TSB was added to adjust bacterial concentration to 3.5×10^6 (cfu/ml). The tube was shaked for 15 seconds to allow thorough mixing. 100 μl of the SA containing medium was removed and dropped evenly across the agar plate. Once the broth was distributed evenly on agar plate and became almost dry, samples to be tested were placed on top of the agar and the petri dish was covered with a parafilm. The dish was placed in an incubator (LM-570R, Yih Der, Taiwan) at 37° C. for 24 hours. Bacteria colony formation was then observed and colony diameters measured.
After being loaded, the samples were placed on a table for 1 hour to become dry. Four samples were then placed into a 20 ml glass vial, wherein 8 ml Hanks' solution was added with a solid/liquid ratio of 0.1 g/ml. The glass vial was put into a water bath at 37° C. for 1, 2, 3, 5, and 7 days. The Hanks' solution was changed daily. Once having been soaked for desired periods of time, the samples were placed into a 50° C. oven for 24 hours, then stored in a zip lock bag.

S. aureus = assay: Antimicrobial activity measurement (CFU count in TSB); type: cell-based
Method: Appropriate amount of UV-sterilized sample (either granule or cement) to be tested was put in a 12-well plate, wherein was added 1 ml Tryptone Soya Broth (TSB) with 10^6 live S. aureusbacteria in each well (concentration: 10^6 colony-forming units (CFU) per ml). S. aureusbacteria were cultured with the sample anaerobically at 37° C. One cultured without sample was considered as a positive control in each study group. The viability of the bacterial suspensions incubated with different samples was assessed using Tryptone Soya Agar (TSA) solid agar plates. After cultivation for 24 h, broth of each well was sequentially diluted and plated. The growth of bacteria was evaluated after cultivation on agar plates at 37° C. for 24 h. Then colony-forming units (CFU) were counted to calculate concentration using the equation,
[formula] and the antimicrobial activity is obtained by the following equation: Antimicrobial activity={[(Conc. of control group)−(conc. of experiment)]/(Conc. of control group)}×100%
Appropriate amounts of UV-sterilized Li3PO4 or Li2CO3 salt were each mixed with 1 ml TSB and tested for their antimicrobial activity values using the aforementioned method.
Appropriate amounts of “65/35” powder were mixed with appropriate amounts of Li3PO4 or Li2CO3 salt to form TTCP/DCPA/CSH/Li salt mixed powder with different Li salt ratios. The mixed powder was mixed with 0.6 M (NH4)2HPO4 solution to form a cement paste. Prior to being fully hardened, the paste was placed in a stainless steel mold under a pressure of 450 Kgf to squeeze a portion of the liquid out of the paste. After being hardened and removed from the mold, the hardened block was crushed and sieved into granules with a particle size range of about 0.4-1.2 mm. 0.2 g UV-sterilized thus-obtained granular sample was mixed with 1 ml TSB and tested for its antimicrobial activity using the aforementioned method.

| SMILES | antibacterial behavior [1] | anti-bacterial zones [1] [mm] | Antimicrobial activity (24 h) (S. aureus; Li salt amount/TSB 0.06 g/ml) [%] | Antimicrobial activity (24 h) (S. aureus; Li salt amount/TSB 0.08 g/ml) [%] | Antimicrobial activity (24 h) (S. aureus; Li salt amount/TSB 0.10 g/ml) [%] | Antimicrobial activity (24 h) (S. aureus; Li salt amount/TSB 0.12 g/ml) [%] | Antimicrobial activity (24 h) (S. aureus; Li salt amount/TSB 0.14 g/ml) [%] | 24 h antimicrobial activity value (S. aureus; all Li2CO3 salt samples (0.06-0.14 g/ml TSB)) [%] | 24 h antimicrobial activity values (S. aureus; 0.06-0.12 g Li3PO4 salt in 1 ml TSB) |
| --- | --- | --- | --- | --- | --- | --- | --- | --- | --- |
| O=C([O-])[O-].[Li+].[Li+] [Li2CO3, Lithium carbonate] | high antibacterial behavior | 18 | 100 | 100 | 100 | 100 | 100 | 100 |  |
| [Li+].[Li+].[O-2] [Li2O, Lithium oxide] | high antibacterial behavior |  |  |  |  |  |  |  |  |
| O=S(=O)([O-])[O-].[Li+].[Li+] [Li2SO4, Lithium sulfate] | high antibacterial behavior | 22 |  |  |  |  |  |  |  |
| O=P([O-])([O-])[O-].[Li+].[Li+].[Li+] [Li3PO4, Lithium phosphate] | high antibacterial behavior |  | 98.9 | 98.9 | 97.4 | 98.8 | 99.8 |  | 97.4-98.9% |
| [F-].[Li+] [LiF, Lithium fluoride] | high antibacterial behavior |  |  |  |  |  |  |  |  |
